Results on 15 compounds are retold here after ChEMBL document CHEMBL1144567, “Linker-modified triamine-linked acridine dimers: synthesis and cytotoxicity properties in vitro and in vivo” (Bioorg Med Chem, 2007).

In general, IC50 refers to the concentration at which inhibition is half-maximal. A low value points to higher potency.

A value given as a limit tells only on which side of the number the result lay.

For one test, the system named is COLO 205. The experiment in a line: Cytotoxicity against human COLO205 cells after 72 hrs by MTT assay. The format is cell-based. As to conditions: COLO 205, 72 h. Background: Tetrazolium assays rely on reduction of a dye to a coloured formazan, in cell work by metabolically active cells.
The nature of test [1]: Cytotoxicity against human HA22T cells after 72 hrs by MTT assay. The format is cell-based.
A short description of test [2]: Cytotoxicity against SKBR3 cells after 72 hrs by MTT assay. The format is cell-based. As to conditions: Homo sapiens, SK-BR-3, 72 h.
In the next test the test system is MOLT-4. The experiment in a line: Cytotoxicity against MOLT4 cells after 72 hrs by MTT assay. As to conditions: Homo sapiens, MOLT-4, 72 h.

Regarding `COc1ccc2nc3cc(Cl)ccc3c(NCCCCN(CCCNc3c4ccc(Cl)cc4nc4ccc(OC)cc34)Cc3ccoc3)c2c1`, the IC50 was found to be 320 nM with COLO 205, 440 nM in test [1], 710 nM in test [2] and 30 nM in the test with MOLT-4.

Regarding `COc1ccc2nc3cc(Cl)ccc3c(NCCCN(CCCNc3c4ccc(Cl)cc4nc4ccc(OC)cc34)Cc3cc(OC)c(OC)c(OC)c3)c2c1`, the IC50 was 4500 nM with COLO 205, 4420 nM in test [1], 5040 nM in test [2] and 60 nM in the test with MOLT-4.

As for `COc1ccc2nc3cc(Cl)ccc3c(NCCCN(CCCNc3c4ccc(Cl)cc4nc4ccc(OC)cc34)Cc3ccsc3)c2c1`, the IC50 in the test on COLO 205 came to 560 nM; in test [1], 1410 nM; in test [2], 1170 nM; in the test on MOLT-4 it was 70 nM.

For `CCc1ccc(CN(CCCNc2c3ccc(Cl)cc3nc3ccc(OC)cc23)CCCNc2c3ccc(Cl)cc3nc3ccc(OC)cc23)o1`, the IC50 was 2560 nM in the test with COLO 205, 3320 nM in test [1], 5250 nM in test [2] and 100 nM with MOLT-4.

In the case of `COc1ccc2nc3cc(Cl)ccc3c(NCCCCN(CCCNc3c4ccc(Cl)cc4nc4ccc(OC)cc34)Cc3cccs3)c2c1`, the IC50 with COLO 205 was determined as 500 nM; in test [1], 440 nM; in test [2] it was 680 nM; in the test with MOLT-4 it was 40 nM.

For the compound `COc1ccc2nc3cc(Cl)ccc3c(NCCCCN(CCCNc3c4ccc(Cl)cc4nc4ccc(OC)cc34)Cc3ccsc3)c2c1`, the IC50 in the test on COLO 205 was 250 nM; in test [1] it was 3590 nM; in test [2] it was 990 nM; in the test on MOLT-4 it was less than 10 nM.

With `COc1ccc2nc3cc(Cl)ccc3c(NCCCN(CCCNc3c4ccc(Cl)cc4nc4ccc(OC)cc34)CC3OC(C)(C)OC3C3COC(C)(C)O3)c2c1` (stereo not given), the IC50 was found to be 2190 nM in the test on COLO 205, 4680 nM in test [1], 4730 nM in test [2] and 60 nM in the test on MOLT-4.

As for `COc1ccc2nc3cc(Cl)ccc3c(NCCCN(CCCNc3c4ccc(Cl)cc4nc4ccc(OC)cc34)Cc3ccc(F)cc3F)c2c1`, the IC50 was 770 nM in the test on COLO 205, 230 nM in test [1], 780 nM in test [2] and less than 10 nM in the test on MOLT-4.

`COc1ccc2nc3cc(Cl)ccc3c(NCCCCN(CCCNc3c4ccc(Cl)cc4nc4ccc(OC)cc34)Cc3ccco3)c2c1`: the IC50 was determined as 370 nM in the test with COLO 205, 4730 nM in test [1], 5070 nM in test [2] and 60 nM with MOLT-4.

On to `CCCCCCN(CCCNc1c2ccc(Cl)cc2nc2ccc(OC)cc12)CCCNc1c2ccc(Cl)cc2nc2ccc(OC)cc12`, for which the IC50 in the test on COLO 205 stood at 890 nM; in test [1] it was 6950 nM; in test [2], 6140 nM; with MOLT-4, 90 nM.

For the compound `COc1cccc(CN(CCCCNc2c3ccc(Cl)cc3nc3ccc(OC)cc23)CCCNc2c3ccc(Cl)cc3nc3ccc(OC)cc23)c1`, the IC50 was found to be 250 nM with COLO 205, 5660 nM in test [1], 1300 nM in test [2] and 710 nM with MOLT-4.

Take `COc1ccc2nc3cc(Cl)ccc3c(NCCCN(CCCNc3c4ccc(Cl)cc4nc4ccc(OC)cc34)Cc3cccnc3)c2c1`: the IC50 is 500 nM with COLO 205, 740 nM in test [1], 640 nM in test [2] and less than 10 nM in the test on MOLT-4.

In the case of `COc1ccc2nc3cc(Cl)ccc3c(NCCCN(CCCNc3c4ccc(Cl)cc4nc4ccc(OC)cc34)Cc3cc(Br)cs3)c2c1`, the IC50 is 720 nM with COLO 205, 840 nM in test [1], 700 nM in test [2] and 60 nM in the test on MOLT-4.

Regarding `COc1ccc2nc3cc(Cl)ccc3c(NCCCN(CCCNc3c4ccc(Cl)cc4nc4ccc(OC)cc34)Cc3ccc(Cl)cc3)c2c1`, the IC50 was 200 nM in the test with COLO 205, 580 nM in test [1], 530 nM in test [2] and less than 10 nM in the test on MOLT-4.

On to `COc1ccc2nc3cc(Cl)ccc3c(NCCCN(CCCNc3c4ccc(Cl)cc4nc4ccc(OC)cc34)CC(O)CO)c2c1` (stereo not given), for which the half-maximal inhibitory concentration (IC50) is 130 nM in the test with COLO 205, 1720 nM in test [1], 1290 nM in test [2] and less than 10 nM in the test on MOLT-4.
